Test results published in US20060123501A1, “Method for treating inflammatory disorders” (priority 2004, published 2006).

Experiments:
[1] = system: peritoneal- and splenic-derived macrophages; assay: Percentage and apoptotic status (Annexin V) of peritoneal and splenic macrophages after i.p. LPS; assay type: in vivo, mouse
Procedure: To determine the apoptotic sensitivity of cIAP2^−/− macrophages within an LPS-induced pro-inflammatory environment, the peritoneal macrophage cell numbers before and during an endotoxin-elicited response were assessed by trypan blue exclusion, Diff Quik™ staining kit and flow cytometry (using the macrophage marker PE conjugated α-F4/80 antibody). […] However, total lymphocyte cell count numbers (B and T cells) were comparatively unaffected in both animal types (FIG. 5D). In addition, at 5 hours post LPS injection both the peritoneal and splenic macrophages from cIAP2^−/− mice stained ˜100% positive for Annexin V (Table 5). Therefore, peritoneal and splenic macrophages from cIAP2^−/− mice undergoing LPS-induced endotoxic shock were highly sensitive to apoptotic stimuli compared to control littermates, in vivo. Liver-derived macrophages are key mediators of LPS-induced endotoxic shock (7, 12). Therefore, to further investigate the survival status of macrophages within LPS treated cIAP2^−/− mice we examined cell count levels of liver-derived macrophages within liver sections. Macrophage cell count numbers within both cIAP2^−/− and control mice were similar at 2 hours post-IP LPS treatment (FIG. 6A), 235+/−35 and 271+/−29, respectively (n=5, average of 3 sections (average of 5 fields per section) per mouse, P<0.01). However, at the 6 hour time point (FIG. 6B), there was a precipitous drop of liver-derived macrophages of the cIAP2^−/− mice, 21+/−12 versus that of the littermates, 148+/−19 (n=5, average of 3 sections (average of 5 fields per section) per mouse, P<0.01). Therefore, like peritoneal and splenic macrophages, the liver-derived macrophages from cIAP2^−/− are highly sensitive to LPS in vivo.
Adult 4-6 week old mice (n=6) were injected i.p. with LPS (35 mg LPS/kg) at time 0 and 5 hours the mice were euthanized and the cells of the peritoneum were collected and stained to determine macrophage, T and B cell percentages. The macrophages were also stained with FITC labeled Annexin V (Immunotech, Marseille, France) to determine apoptotic status.
T and B cells were isolated from mouse lymphoid tissue (spleen) by first mincing and then pressing the tissue through a 10 μm metal mesh and were then counted by using trypan blue exclusion method. Macrophages were harvested from mice using an inter-peritoneal (i.p.) lavage ([…]: 5% FCS, 50 μM β-mercaptoethanol, […] L-glutamine, penicillin and streptomycin, at 4° C.) and washed once (centrifuged at 800 Xg for 15 min) and resuspended at ˜2×10^7 cells/ml for peritoneal macrophages. Subsequently, peritoneal macrophages were layered on 5 ml of room temperature Lympholyte-M (CedarLane, Canada) and centrifuged at 1500×g for 20 min at room temperature. For splenic macrophages 3 ml of the minced and pressed tissue (˜2×10^7 splenocytes/ml) was layered on 5 ml of room temperature Lympholyte-M (CedarLane, Canada) and centrifuged at 1500×g for 20 min at room temperature. Subsequently, either peritoneal or spleen-derived macrophages were collected from the interface layer, washed twice with complete DMEM and re-suspend in 1 ml complete DMEM. The resulting cells were then counted by using typan blue exclusion and Diff Quik™ Stain Kit (IMEB INC, San Marcos, Calif.). Cells (10^5-10^6) were incubated with the following conjugated monoclonal antibodies: α-CD3ε-flourescein isohiocyanate (FITC), CD4-phycoerythin (PE), CD8α-Cy-Chrome, CD69-PE; B229-FITC, B220-PE, CD11b-Cy-Chrome, (Pharmigen) F4/80-FITC and F4/80PE (Cedarlane Laoratories, Hornby, ON, Canada). Flow cytometric analyses were performed on a Coulter XL cytometer (Coulter, Canada). Concentrations of TNF-α and IL-1β, in primary tissue culture supernatants were determined by ELISA kit (R&D Systems).

[2] = system: peritoneal-derived macrophages; assay: Fas-induced death of peritoneal macrophages with or without LPS pre-treatment (TUNEL); assay type: cell-based, mouse; details: LPS 10 μg/ml, 4 h, α-Fas antibody 20 μg/ml
Procedure: Peritoneal-derived macrophages from cIAP2^−/− (lower panels) and cIAP2^+/+ mice (upper panels) were either pre-treated with LPS for 4 h or not pre-treated prior to exposure to α-Fas antibody and then TUNEL stained to assess cell viability (A). Percentages of viable cells (n=5, average of triplicate wells per mouse, P values were <0.01) are shown within each TUNEL stained panel along with the standard deviation. cIAP2^−/−-derived (open shapes) and cIAP2^+/+-derived (solid shapes) T cells were pre-incubated with a range of IL-7 concentrations and then exposed to dexamethasone and T cell survival was monitored over a 12 h period (B) (n=3, average of triplicate wells per mouse, results are mean±s.d., P values at the 12 h point were <0.05). Peritoneal-derived cell numbers are shown for macrophages of cIAP2^−/− mice and littermate control cIAP2^+/+ mice injected i.p. with LPS(C). […]
Confluent primary cultures of peritoneal-derived macrophages were either pre-treated with LPS (10 μg/ml, 4 h) or not pre-treated prior to exposure to α-Fas antibody (20 μg/ml, clone Jo2) and then TUNEL stained (Roche) to assess cell viability. Primary cultures of spleen derived T cells were pre-incubated with a range of IL-7 concentrations (0, 5, and 10 ng/ml) and then exposed to dexamethasone (100 nM) and T cell survival was monitored over a 12 h period.

[3] = cIAP2+/+ mice, Peritoneal cavity, 0 hrs post-LPS
[4] = cIAP2+/+ mice, Peritoneal cavity, 5 hrs post-LPS
[5] = cIAP2+/+ mice, Spleen, 0 hrs post-LPS
[6] = cIAP2+/+ mice, Spleen, 0 hrs post-LPS (first Spleen line)
[7] = cIAP2−/− mice, Peritoneal cavity, 0 hrs post-LPS
[8] = cIAP2−/− mice, Peritoneal cavity, 5 hrs post-LPS
[9] = cIAP2−/− mice, Spleen, 0 hrs post-LPS
[10] = cIAP2−/− mice, Spleen, 0 hrs post-LPS (first Spleen line)

With lipopolysaccharide [LPS] the “Percent apoptotic” value [1, 3] was 10 ± 2%, the Percent macrophage [1, 3] was 54 ± 29% and the “Percent apoptotic” value [1, 4] was 66 ± 8%. The Percent macrophage [1, 4] was 31 ± 17%, the “Percent apoptotic” value [1, 5] was 46 ± 8% and the Percent macrophage [1, 5] was 28 ± 5%. For the same substance, the “Percent apoptotic” value [1, 6] was 5 ± 3%, the Percent macrophage [1, 6] was 33 ± 15% and the Percent apoptotic [1, 7] was 15 ± 3%. The “Percent macrophage” value [1, 7] was 41 ± 24%, the Percent apoptotic [1, 8] was 100 ± 3% and the “Percent macrophage” value [1, 8] was 8 ± 11%. The Percent apoptotic [1, 9] was 98 ± 4%, the “Percent macrophage” value [1, 9] was 24 ± 8% and the Percent apoptotic [1, 10] was 2 ± 5%. For the same substance, the “Percent macrophage” value [1, 10] was 24 ± 11%, the “Macrophages positive for Annexin V (apoptotic)” value ([1]; cIAP2−/− mice, peritoneal and splenic macrophages, 5 hours post LPS injection) was ~100% and the “Resistance to Fas-mediated killing with or without pre-exposure to LPS” value ([2]; cIAP2−/− macrophages) was “displayed no difference”. The “Resistance to Fas-induced death after LPS pre-treatment” value ([2]; wild-type macrophages) was “showed the expected resistance to Fas-induced death”.
